# Key:
# Sigma receptor = Sigma receptor binding study; settings: test concentration typically 10 μM
# Method: (§1) The tests were typically carried out at a test concentration of 10 μM.
# Histamine H1 receptor = biological target: T1, Histamine H1 receptor (Cavia porcellus, UniProt P31389); assay: Histamine H1 receptor binding study; settings: test concentration typically 10 μM; read-out: H1 Inh. [%]
# T1 construct: from tissue
# Description: Table 5 summarises the inhibitory values on the above receptors:
# [1] = system: "Na+ channel site 2"-binding site; assay: Binding to the Na+ channel site 2 binding site ([3H]-BTX); settings: test concentration typically 10 μM
# Method: as §1
# AMPA receptor = assay: Inhibition of the cainate-induced signal at the AMPA receptor, electrophysiology on neuronal cells (Patch-Clamp-Method); assay type: cell-based; settings: test concentration of 100 μM
# Method: The tests were carried out at a test concentration of 100 μM.
# T1 sequence (P31389 whole entry): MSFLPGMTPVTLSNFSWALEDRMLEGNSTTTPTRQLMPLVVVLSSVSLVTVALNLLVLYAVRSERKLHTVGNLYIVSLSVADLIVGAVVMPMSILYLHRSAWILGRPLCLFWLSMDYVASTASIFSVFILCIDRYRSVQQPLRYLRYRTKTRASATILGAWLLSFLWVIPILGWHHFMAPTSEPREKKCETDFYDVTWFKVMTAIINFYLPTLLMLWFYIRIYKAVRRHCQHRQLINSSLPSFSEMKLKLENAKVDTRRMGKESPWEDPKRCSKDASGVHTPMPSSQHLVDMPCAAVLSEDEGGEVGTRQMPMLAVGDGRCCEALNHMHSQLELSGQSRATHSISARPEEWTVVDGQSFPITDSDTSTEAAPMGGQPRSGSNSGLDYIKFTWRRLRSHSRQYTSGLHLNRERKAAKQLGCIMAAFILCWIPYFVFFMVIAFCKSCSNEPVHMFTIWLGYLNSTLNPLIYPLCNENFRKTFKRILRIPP
Compound,Sigma Inh. [%] (Sigma receptor),inhibition at 10 µM (Histamine H1 receptor),Na+-channel Inh. [%] ([3H]-BTX) [1],AMPA Inh. [%] (inhibiting the cainate-induced signal at the AMPA receptor) (AMPA receptor)
"CN(C)CCOc1ccccc1-c1nc(-c2ccc(O)cc2)no1 [Example 8, 5-{2-[2-(N,N-Dimethylamino)ethyl]oxy-phenyl}-3-(4-hydroxyphenyl)-1,2,4-oxadiazole]",59%,94%,87%,97%
"Cc1ccc(-c2noc(-c3ccccc3OCCN(C)C)n2)cc1 [Example 17, 5-{2-[2-(N,N-Dimethylamino)-ethyl]oxy-phenyl}-3-(4-methyl-phenyl)-1,2,4-oxadiazole]",65%,78%,80%,97%
"CN(C)CCOc1ccccc1-c1nc(-c2ccc(Cl)cc2)no1 [Example 18, 5-{2-[2-(N,N-Dimethylamino)-ethyl]oxy-phenyl}-3-(4-chlor-phenyl)-1,2,4-oxadiazole]",80%,94%,85%,80%
"COc1ccc(-c2noc(-c3ccccc3OCCN(C)C)n2)cc1 [Example 19, 5-{2-[2-(N,N-Dimethylamino)-ethyl]oxy-phenyl}-3-(4-methoxy-phenyl)-1,2,4-oxadiazole]",74%,95%,83%,86%
"CN(C)CCOc1ccccc1-c1nc(-c2ccccc2Cl)no1 [Example 27, 5-{2-[2-(N,N-Dimethylamino)-ethyl]oxy-phenyl}-3-(2-chloro-phenyl)-1,2,4-oxadiazole]",84%,90%,79%,91%
"CN(C)CCOc1ccccc1-c1nc(-c2ccc(Cl)cc2Cl)no1 [Example 28, 5-{2-[2-(N,N-Dimethylamino)-ethyl]oxy-phenyl}-3-(2,4-dichloro-phenyl)-1,2,4-oxadiazole]",84%,92%,91%,87%
Cc1ccccc1-c1noc(-c2ccccc2OCCN(C)C)n1 [Example 33],77%,87%,84%,87%
CN(C)CCOc1ccccc1-c1nc(-c2ccccc2F)no1 [Example 34],75%,96%,88%,97%
"Cc1cccc(-c2noc(-c3ccccc3OCCN(C)C)n2)c1 [Example 37, 5-{2-[2-(N,N-Dimethylamino)-ethyl]oxy-phenyl}-3-(3-methyl-phenyl)-1,2,4-oxadiazole]",82%,93%,93%,93%
"CN1CCN(c2ccccc2-c2nc(-c3ccccc3)no2)CC1 [Example 40, 5-[2-(4-methylpiperazin-1yl)-phenyl]-3-phenyl-1,2,4-oxadiazole]",76%,99%,88%,37%
"CN(C)CCOc1ccccc1-c1nc(-c2cccs2)no1 [Example 42, 5-{2-[2-(N,N-Dimethylamino)-ethyl]oxy-phenyl}-3-(2-thienyl)-1,2,4-oxadiazole]",57%,94%,89%,79%
"CN(C)CCOc1ccccc1-c1nc(-c2ccccn2)no1 [Example 43, 5-{2-[2-(N,N-Dimethylamino)-ethyl]oxy-phenyl}-3-(2-pyridyl)-1,2,4-oxadiazole]",0%,86%,72%,77%
"CN(C)CCOc1ccccc1-c1nc(-c2cccc(C(F)(F)F)c2)no1 [Example 44, 5-{2-[2-(N,N-Dimethylamino)-ethyl]oxy-phenyl}-3-(3-rifluoromethylphenyl)-1,2,4-oxadiazole]",93%,74%,89%,62%
"CN(C)CCOc1ccccc1-c1nc(-c2ccc(F)cc2)no1 [Example 45, 5-{2-[2-(N,N-Dimethylamino)-ethyl]oxy-phenyl}-3-(4-fluoro-phenyl)-1,2,4-oxadiazole]",85%,98%,79%,64%
"CN(C)CCOc1ccccc1-c1nc(-c2ccc(N)cc2)no1 [Example 47, 5-{2-[2-(N,N-Dimethylamino)-ethyl]oxy-phenyl}-3-(4-amino-phenyl)-1,2,4-oxadiazole]",56%,82%,74%,59%
"CN(C)CCOc1ccccc1-c1nc(-c2ccsc2)no1 [Example 54, 5-{2-[2-(N,N-Dimethylamino)-ethyl]oxy-phenyl}-3-(3-thienyl)-1,2,4-oxadiazole]",68%,95%,62%,
"CN(C)CCOc1ccccc1-c1nc(C2CC2)no1 [Example 55, 5-{2-[2-(N,N-Dimethylamino)-ethyl]oxy-phenyl}-3-cyclopropyl-1,2,4-oxadiazole]",,,,81%

# Continued, in another order:
Sigma Inh. [%] (Sigma receptor),inhibition at 10 µM (Histamine H1 receptor),Na+-channel Inh. [%] ([3H]-BTX) [1],Compound,AMPA Inh. [%] (inhibiting the cainate-induced signal at the AMPA receptor) (AMPA receptor)
62%,98%,91%,"CN(C)CCOc1ccccc1-c1noc(-c2ccccc2)n1 [Example 3, 3-{2-[2-(N,N-Dimethylamino)ethyl]oxy-phenyl}-5-phenyl-1,2,4-oxadiazole]",96%
41%,44%,79%,"c1ccc(-c2noc(-c3ccccc3OCCN3CCOCC3)n2)cc1 [Example 4, 5-{2-[2-(Morpholino)ethyl]oxy-phenyl}-3-phenyl-1,2,4-oxadiazole]",71%
90%,74%,78%,"CN1CCN(CCOc2ccccc2-c2nc(-c3ccccc3)no2)CC1 [Example 5, 5-{2-[2-(4-methylpiperazin-1-yl)ethyl]oxy-phenyl}-3-phenyl-1,2,4-oxadiazole]",84%
68%,87%,90%,"CCN(CC)CCOc1ccccc1-c1nc(-c2ccccc2)no1 [Example 12, 5-{2-[2-(N,N-Diethylamino)ethyl]-oxy-phenyl}-3-phenyl-1,2,4-oxadiazole]",85%
83%,91%,95%,"c1ccc(-c2noc(-c3ccccc3OCCN3CCCC3)n2)cc1 [Example 13, 5-{2-[2-(N-Pyrrolidinyl)ethyl]oxy-phenyl}-3-phenyl-1,2,4-oxadiazole]",96%
93%,87%,100%,"c1ccc(-c2noc(-c3ccccc3OCCN3CCCCC3)n2)cc1 [Example 14, 5-{2-[2-(N-Piperidinyl)ethyl]oxy-phenyl}-3-phenyl-1,2,4-oxadiazole]",96%
84%,19%,100%,"c1ccc(CNCCOc2ccccc2-c2nc(-c3ccccc3)no2)cc1 [Example 20, 5-{2-[2-(N-benzylamino)ethyl]-oxy-phenyl}-3-phenyl-1,2,4-oxadiazole]",90%
76%,75%,100%,"CC(C)NCCOc1ccccc1-c1nc(-c2ccccc2)no1 [Example 21, 5-{2-[2-(N-Isopropylamino)ethyl]-oxy-phenyl}-3-phenyl-1,2,4-oxadiazole]",98%
78%,64%,94%,"CNCCOc1ccccc1-c1nc(-c2ccccc2)no1 [Example 22, 5-{2-[2-(N-methylamino)ethyl]-oxy-phenyl}-3-phenyl-1,2,4-oxadiazole]",94%
79%,63%,99%,"CCNCCOc1ccccc1-c1nc(-c2ccccc2)no1 [Example 23, 5-{2-[2-(N-ethylamino)ethyl]-oxy-phenyl}-3-phenyl-1,2,4-oxadiazole]",93%
52%,27%,89%,"NCCOc1ccccc1-c1nc(-c2ccccc2)no1 [Example 24, 5-[2-(2-aminoethyl)oxy-phenyl]-3-phenyl-1,2,4-oxadiazole]",96%
77%,94%,82%,"CN(C)CCOc1ccccc1-c1nc(Cc2ccccc2)no1 [Example 31, 5-{2-[2-(N,N-Dimethylamino)-ethyl]oxy-phenyl}-3-benzyl-1,2,4-oxadiazole]",23%

# From patent US6277872A, “Oxadiazoles, processes for their preparation and their use as medicaments” (Boehringer Ingelheim KG, priority 1996, dated 2001)
